We go through eleven molecules from patent US11155550B2, “Histone deacetylase inhibitors and methods of use thereof” (Reaction Biology Corp., priority 2018, dated 2021).

This assay has as its target T1, Recombinant human HDAC6 (Homo sapiens, UniProt Q9UBN7).
T1 construct: full-length, MW=180 kDa; GST tag (N); made in house; host or cells: Sf9 insect cells (baculovirus)
T1 sequence (Q9UBN7 1-1215): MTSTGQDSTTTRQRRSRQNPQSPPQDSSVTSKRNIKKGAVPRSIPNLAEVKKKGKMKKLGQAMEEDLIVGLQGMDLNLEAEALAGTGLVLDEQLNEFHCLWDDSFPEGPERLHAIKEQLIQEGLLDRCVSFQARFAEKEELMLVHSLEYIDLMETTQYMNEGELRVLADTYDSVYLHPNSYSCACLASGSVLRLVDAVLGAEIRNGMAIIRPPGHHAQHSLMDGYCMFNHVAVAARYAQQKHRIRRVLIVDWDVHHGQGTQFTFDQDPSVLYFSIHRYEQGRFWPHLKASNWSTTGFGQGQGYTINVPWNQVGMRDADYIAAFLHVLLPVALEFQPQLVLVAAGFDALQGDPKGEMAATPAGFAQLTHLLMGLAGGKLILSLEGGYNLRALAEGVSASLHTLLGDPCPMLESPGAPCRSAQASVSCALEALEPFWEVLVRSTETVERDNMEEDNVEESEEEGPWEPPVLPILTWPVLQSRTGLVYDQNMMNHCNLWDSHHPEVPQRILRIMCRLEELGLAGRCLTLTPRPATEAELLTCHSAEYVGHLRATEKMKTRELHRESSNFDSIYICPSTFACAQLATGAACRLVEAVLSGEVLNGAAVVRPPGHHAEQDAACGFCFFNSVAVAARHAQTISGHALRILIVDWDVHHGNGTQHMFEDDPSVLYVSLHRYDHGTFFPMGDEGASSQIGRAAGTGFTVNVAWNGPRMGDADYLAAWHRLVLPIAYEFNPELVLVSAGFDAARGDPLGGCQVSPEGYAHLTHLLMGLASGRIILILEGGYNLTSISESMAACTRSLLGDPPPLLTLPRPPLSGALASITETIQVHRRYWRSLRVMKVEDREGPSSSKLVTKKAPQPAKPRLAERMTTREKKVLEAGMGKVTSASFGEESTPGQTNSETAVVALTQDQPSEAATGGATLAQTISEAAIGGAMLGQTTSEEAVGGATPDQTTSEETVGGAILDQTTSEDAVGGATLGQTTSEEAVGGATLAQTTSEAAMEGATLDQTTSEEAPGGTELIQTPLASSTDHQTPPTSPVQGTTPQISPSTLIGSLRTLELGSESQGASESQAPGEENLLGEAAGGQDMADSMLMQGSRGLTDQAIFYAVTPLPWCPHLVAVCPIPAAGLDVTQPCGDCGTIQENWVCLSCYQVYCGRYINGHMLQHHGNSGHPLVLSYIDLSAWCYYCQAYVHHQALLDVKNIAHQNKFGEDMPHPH
As to the kind of experiment: Biochemical HDAC enzymatic assay, HDAC6. Particulars: incubation time 10 min. On the procedure: Incubation time for HDAC1/2 is 120 min, and 10 min for other HDACs.
Recombinant human HDAC6 (GenBank Accession No. BC069243), full-length, MW=180 kDa, was expressed by baculovirus in Sf9 insect cells using an N-terminal GST tag.
(§1) • I. Compound handling: Testing compounds were dissolved in 100% DMSO to a specific concentration. The serial dilution was conducted by epMotion 5070 in DMSO. • II. HDAC reaction buffer: 50 mM Tris-HCl, pH8.0, 137 mM NaCl, 2.7 mM KCl, and 1 mM MgCl2, Added fresh: 1 mg/ml BSA, 1% DMSO. • III. Substrate: Fluorogenic HDAC General Substrate for HDAC1, 2, 3, 6, 10, 11 ans Sirt1, 2 and 3: Arg-His-Lys-Lys(Ac); HDAC8 only substrate: Arg-His-Lys(Ac)-Lys(Ac); Class2A Substrate (HDAC4, 5, 7 and 9): Acetyl-Lys(trifluoroacetyl)-AMC; Sirt5 substrate: Ac-Lys(succinyl)-AMC. • IV. General Reaction Procedure: (Standard IC50 determination) • a. Delivered 2× enzyme in wells of reaction plate except No Enzyme (No En) control wells. Add buffer in No En wells. • b. Delivered compounds in 100% DMSO into the enzyme mixture by Acoustic technology (Echo550; nanoliter range). Spin down and pre-incubation. • c. Delivered 2× Substrate Mixture (Fluorogenic HDAC Substrate and co-factor (500 μM of Nicotinamide adenine dinucleotide (NAD^+) in all Sirt assay) in all reaction wells to initiate the reaction. Spin and shake. • d. Incubated for 1-2 hr. at 30° C. with seal. • e. Added Developer with Trichostatin A (or TMP269 or NAD^+) to stop the reaction and to generate fluorescent color. • f. Fluorescence was read (excitatory, 360; emission, 460) using the EnVision Multilabel Plate Reader (Perkin Elmer) • g. Endpoint reading was taken for analysis after the development reaches plateau. • V. Data Analysis: The percentages of enzyme activity (relative to DMSO controls) and IC50 values were calculated using the GraphPad Prism 4 program based on a sigmoidal dose-response equation.
The inhibitory activities of HDAC of compounds of the invention were determined using biochemical HDAC assays. Compounds were tested at the indicated doses in the biochemical assays of HDAC1, HDAC2, HDAC3, HDAC4, HDAC5, HDAC6, HDAC7, HDAC8, HDAC9, HDAC10, or HDAC11 enzyme. The curve fit and IC50 values were calculated using the GraphPad Prism 4 program based on a sigmoidal dose-response equation.
as §1, with “[…]” for “μM”, “equation. […]” for “equation.”

Each structure is given as a SMILES string.

What is called IC50 is the concentration that inhibits the measured activity by half. Regarding `O=C(NO)c1ccc(CN2C(=O)c3ccccc3C23OCCO3)cc1` [Compound Example 8, N-hydroxy-4-((3-oxospiro[isoindoline-1,2′-[1,3]dioxolan]-2-yl)methyl)benzamide], the IC50 (Table 2) was determined as 29 nM.
On to `O=C(NO)c1ccc(CN2C(=O)C3(CCOC3)c3ccccc32)cc1` (centres unmarked) [Compound Example 9], for which, where the note is “Table 2”, the concentration for half-maximal inhibition (IC50) came to 4.5 nM.
The same measure, in the same setting: the result for `O=C(NO)c1ccc(CN2C(=O)c3ccccc3C23CCNCC3)cc1` [Compound Example 10, N-hydroxy-4-((3-oxospiro[isoindoline-1,4′-piperidin]-2-yl)methyl)benzamide] reads 205 nM; that for `CN(C)C(=O)N1CCC2(CC1)c1ccccc1C(=O)N2Cc1ccc(C(=O)NO)cc1` [Compound Example 11, 2-(4-(hydroxycarbamoyl)benzyl)-N,N-dimethyl-3-oxospiro[isoindoline-1,4′-piperidine]-1′-carboxamide], 35 nM.
Still for that read-out and setting: with `O=C(NO)c1ccc(CN2C(=O)c3ccccc3C23CCN(C2CC2)CC3)cc1` [Compound Example 12, 4-((1′-cyclopropyl-3-oxospiro[isoindoline-1,4′-piperidin]-2-yl)methyl)-N-hydroxybenzamide] the figure was 26 nM.
In the case of `Nc1ccc(-c2cccs2)cc1NC(=O)c1ccc(CN2C(=O)CCCC23CNC3)cc1` [Example 1, N-(2-amino-5-(thiophen-2-yl)phenyl)-4-((6-oxo-2,5-diazaspiro[3.5]nonan-5-yl)methyl)benzamide], under “Table 1”, the concentration for half-maximal inhibition (IC50) is over 20000 nM.
On the same count and under the same terms, the result for `Nc1ccc(-c2cccs2)cc1NC(=O)c1ccc(CN2C(=O)CCC23CCNCC3)cc1` [Example 2, N-(2-amino-5-(thiophen-2-yl)phenyl)-4-((2-oxo-1,8-diazaspiro[4.5]decan-1-yl)methyl)benzamide] reads over 20000 nM; that for `Nc1cc(F)ccc1NC(=O)c1ccc(CN2C(=O)CCCC23CNC3)cc1` [Example 3, N-(2-amino-4-fluorophenyl)-4-((6-oxo-2,5-diazaspiro[3.5]nonan-5-yl)methyl)benzamide], over 10000 nM.
On the same count and under the same terms, the result for `CN1CCC2(CC1)CN(c1ccc(C(=O)Nc3cc(-c4cccs4)ccc3N)cn1)C(=O)O2` [Example 4, N-(2-amino-5-(thiophen-2-yl)phenyl)-6-(8-methyl-2-oxo-1-oxa-3,8-diazaspiro[4.5]decan-3-yl)nicotinamide] reads over 20000 nM.
Turning to `Nc1ccc(-c2ccc(F)cc2)cc1NC(=O)c1ccc(N2CC3(CCOCC3)OC2=O)nc1` [Example 5, N-(4-amino-4′-fluoro-[1,1′-biphenyl]-3-yl)-6-(2-oxo-1,8-dioxa-3-azaspiro[4.5]decan-3-yl)nicotinamide], under “Table 1”, the IC50 is over 20000 nM.
On the same count and under the same terms, the result for `Nc1ccc(-c2cccs2)cc1NC(=O)c1ccc(N2CC3(CCNCC3)CCC2=O)nc1` [Example 6, N-(2-amino-5-(thiophen-2-yl)phenyl)-6-(3-oxo-2,9-diazaspiro[5.5]undecan-2-yl)nicotinamide] reads over 20000 nM.
